Test results as given in patent US9974760B2, “Compositions and methods for treating cancer” (Chemo-Enhanced LLC, priority 2011, dated 2018).

Tests used:
Gab1 = Gab1 activation in wildtype and Gab1 knockout MEFs; type: cell-based; settings: wildtype vs Gab1 knockout MEFs
Excerpt: One of the most studied scaffold proteins for AKT activation is Gab1. Physical association between p85 and Gab1 is crucial in mediating the PI3K/AKT signaling pathway induced by a variety of stimuli. […] It is believed that that Gab1 is a key adaptor for taxol and gemcitabine induced PI3K/AKT/mTOR activation and chemoresistance response. To confirm this rationale, wildtype and Gab1 knockout MEFs and Gab1 siRNA can be used to test taxol and gemcitabine induced PI3K/AKT/mTOR and cell death. Interaction between Gab1 and p85 after Taxol and Gemcitabine treatment can also be tested in L3.6 cells.

L3.6 pancreatic cells = type: in vivo; settings: taxol 3 mg/ml, C6-ceramide 10 mg/ml, i.p. 3×/wk, vs control
Protocol: Treatment was started 4 days after L3.6 cell injection with thrice weekly (3×/wk) intraperitoneal (i.p.) injections of paclitaxel 3.0 mg/ml with or without C6-ceramide (10 mg/ml) for 2 weeks. Mouse survival (FIGS. 2A and 2C), tumor volume (in cm^3; FIG. 2B), mouse body weight (in grams) were recorded (FIG. 2E). The average rate of tumor development was calculated by total tumor volume dividing by total number of days monitored (FIG. 2C).
(§1) SCID/Beige/Taconic nude male mice (22-25 g; 6-8 weeks old) were ear tagged and randomized into 4 different groups (Control, Ceramide, gemcitabine, Ceramide+gemcitabine) combining 5 mice each prior to inoculation subcutaneous (s.c.) with 2×10^6 L3.6 cells in a 0.1 ml volume into the internal surface of the right thigh. Treatment was started 4 days after L3.6 cell injection with thrice weekly (3×/wk) intraperitoneal (i.p.) injections of gemcitabine (two doses: 5.0 and 10.0 mg/ml) with or without C6-ceramide (10 mg/ml) for 2 weeks. Mouse survival (FIGS. 3A, 3B, and 3E) and tumor volume (in cm^3; FIGS. 3C and 3D) were recorded (FIG. 3E). Pancreatic cancer cell lines, including L3.6 cells (FIG. 3F), Panc-1 cells (FIG. 3G) and MIA-PaCa2 cells (MIA, FIG. 3H) were cultured in basic DMEM medium and were treated with gemcitabine (Gem, 1 μg/ml). Mitomycin C was always present in the media to prevent cell proliferation from occurring.
SCID/Beige/Taconic male mice were inoculated with 2×10^6 L3.6 pancreatic cells and treated […] 4 days post tumor implant with thrice weekly (3×/wk) intraperitoneal (I.P.) injections of paclitaxel (taxol) 3.0 mg/ml or gemcitabine (Gem) 10 mg/ml after treatment and were autopsied when near death (as per IRB committee). Mouse survival, tumor volume (in cm^3), and body weight (in grams) were recorded. Average rate of tumor development was calculated by dividing total tumor volume by total number of days monitored.
(§2) The possible combination effect of C6-ceramide on gemcitabine-induced cytotoxicity (in vitro) and regression (in vivo) of the L3.6 pancreatic cancer cell was also tested according to the methods described in Examples 2 and 3.

Panc-1 cells = test: Cell death in Panc-1 pancreatic cancer cells; type: cell-based
Protocol: as §1, with “FIGS. 3A-3H show synergistic anti-tumor effects of C6-ceramide and gemcitabine in vivo and in vitro. SCID/Beige/Taconic” for “SCID/Beige/Taconic”, “Pancreatic cancer cell lines, including L3.6 cells (FIG. 3F), Panc-1 cells (FIG. 3G) and MIA-PaCa2 cells (MIA, FIG. 3H) were cultured in basic DMEM medium and were treated with gemcitabine (Gem, 1 μg/ml).” left out, “occurring. The data represent the mean±SD of at least triplicate experiments. *P<0.05 versus group without C6-ceramide presents. The experiments were repeated at least three times and similar results were observed.” for “occurring.”
(§3) Cell viability was measured by the 3-[4m5-dimethylthylthiazol-2-y]-2.5 diphenyltetrazolium bromide (MTT) method, as described in Cao et al. (2009) Sci. Signal, 2:RA17. Briefly, the cells were collected and seeded in 96-well plate at a density of 2×10^5 cells/cm^2. Different seeding densities were optimized at the beginning of the experiments. […] The medium was subsequently aspirated from each well and 150 ul of DMSO (Sigma, St. Louis, Mo.) was added to dissolve formazan crystals and the absorbance of each well was obtained using a Dynatech MR5000 plate reader at a test wavelength of 490 nm with a reference wavelength of 630 nm.
as §2, with “and 3. […] A synergistic anti-tumor effect of gemcitabine and C6-ceramide in multiple pancreatic cancer cells in vitro was also determined.” for “and 3.”

[1] = test system: L3.6 pancreatic cancer cells; test: Cell viability / cell death (MTT) in L3.6 pancreatic cancer cells; type: cell-based, human; settings: gemcitabine 1.5 μg/ml
MIA-PaCa2 cells = test: Cell death in MIA-PaCa2 pancreatic cancer cells; type: cell-based
Protocol: as §1, with “FIGS. 3A-3H show synergistic anti-tumor effects of C6-ceramide and gemcitabine in vivo and in vitro. SCID/Beige/Taconic” for “SCID/Beige/Taconic”, “Pancreatic cancer cell lines, including L3.6 cells (FIG. 3F), Panc-1 cells (FIG. 3G) and MIA-PaCa2 cells (MIA, FIG. 3H) were cultured in basic DMEM medium and were treated with gemcitabine (Gem, 1 μg/ml).” left out, “occurring. The data represent the mean±SD of at least triplicate experiments. *P<0.05 versus group without C6-ceramide presents. The experiments were repeated at least three times and similar results were observed.” for “occurring.”
as §3
as §2, with “and 3. […] A synergistic anti-tumor effect of gemcitabine and C6-ceramide in multiple pancreatic cancer cells in vitro was also determined.” for “and 3.”

SMILES	Gab1 activation (Gab1)	mouse survival (L3.6 pancreatic cells)	tumor volume (L3.6 pancreatic cells)	sensitization to cetuximab (Panc-1 cells; PANC-1, activating KRAS mutation)	cancer cell death (Panc-1 cells; Panc-1, gemcitabine 1.5 μg/ml)	cancer cell death [1]	sensitization to cetuximab (MIA-PaCa2 cells; MIA PaCa-2, activating KRAS mutation)	cancer cell death (MIA-PaCa2 cells; MIA cells, gemcitabine 1.5 μg/ml)
CC(=O)O[C@H]1C(=O)[C@@]2(C)[C@H]([C@H](OC(=O)c3ccccc3)[C@]3(O)C[C@H](OC(=O)[C@H](O)[C@@H](NC(=O)c4ccccc4)c4ccccc4)C(C)=C1C3(C)C)[C@]1(OC(C)=O)CO[C@@H]1C[C@@H]2O [paclitaxel]	induces Gab1 activation in wildtype but not Gab1 knockout MEFs	minimal effects	minimal effects					
CCCCCCCCCCCCC/C=C/[C@@H](O)[C@H](CO)NC(=O)CCCCC [C6-ceramide, N-hexanoyl-D-sphingosine]		minimal effects	minimal effects	markedly sensitized	moderate effect	moderate effect	markedly sensitized	moderate effect
